Test results as given in patent US10220048B2, “Compositions and methods for treating ocular diseases” (Aerpio Therapeutics, Inc., priority 2013, dated 2019).
Where “and” joins values, the source holds several entries; their conditions need not be identical. Equal values may be shown once. Entries after “also recorded” stand apart in the source; their conditions may differ.

Key:
HPTP-β = HPTP-β (Homo sapiens (Human), UniProt P23467); assay: HPTP-β inhibition (IC50); type: biochemical; conditions: read-out: HPTPβ IC50
Chain of HPTP-β (P23467 23-1997): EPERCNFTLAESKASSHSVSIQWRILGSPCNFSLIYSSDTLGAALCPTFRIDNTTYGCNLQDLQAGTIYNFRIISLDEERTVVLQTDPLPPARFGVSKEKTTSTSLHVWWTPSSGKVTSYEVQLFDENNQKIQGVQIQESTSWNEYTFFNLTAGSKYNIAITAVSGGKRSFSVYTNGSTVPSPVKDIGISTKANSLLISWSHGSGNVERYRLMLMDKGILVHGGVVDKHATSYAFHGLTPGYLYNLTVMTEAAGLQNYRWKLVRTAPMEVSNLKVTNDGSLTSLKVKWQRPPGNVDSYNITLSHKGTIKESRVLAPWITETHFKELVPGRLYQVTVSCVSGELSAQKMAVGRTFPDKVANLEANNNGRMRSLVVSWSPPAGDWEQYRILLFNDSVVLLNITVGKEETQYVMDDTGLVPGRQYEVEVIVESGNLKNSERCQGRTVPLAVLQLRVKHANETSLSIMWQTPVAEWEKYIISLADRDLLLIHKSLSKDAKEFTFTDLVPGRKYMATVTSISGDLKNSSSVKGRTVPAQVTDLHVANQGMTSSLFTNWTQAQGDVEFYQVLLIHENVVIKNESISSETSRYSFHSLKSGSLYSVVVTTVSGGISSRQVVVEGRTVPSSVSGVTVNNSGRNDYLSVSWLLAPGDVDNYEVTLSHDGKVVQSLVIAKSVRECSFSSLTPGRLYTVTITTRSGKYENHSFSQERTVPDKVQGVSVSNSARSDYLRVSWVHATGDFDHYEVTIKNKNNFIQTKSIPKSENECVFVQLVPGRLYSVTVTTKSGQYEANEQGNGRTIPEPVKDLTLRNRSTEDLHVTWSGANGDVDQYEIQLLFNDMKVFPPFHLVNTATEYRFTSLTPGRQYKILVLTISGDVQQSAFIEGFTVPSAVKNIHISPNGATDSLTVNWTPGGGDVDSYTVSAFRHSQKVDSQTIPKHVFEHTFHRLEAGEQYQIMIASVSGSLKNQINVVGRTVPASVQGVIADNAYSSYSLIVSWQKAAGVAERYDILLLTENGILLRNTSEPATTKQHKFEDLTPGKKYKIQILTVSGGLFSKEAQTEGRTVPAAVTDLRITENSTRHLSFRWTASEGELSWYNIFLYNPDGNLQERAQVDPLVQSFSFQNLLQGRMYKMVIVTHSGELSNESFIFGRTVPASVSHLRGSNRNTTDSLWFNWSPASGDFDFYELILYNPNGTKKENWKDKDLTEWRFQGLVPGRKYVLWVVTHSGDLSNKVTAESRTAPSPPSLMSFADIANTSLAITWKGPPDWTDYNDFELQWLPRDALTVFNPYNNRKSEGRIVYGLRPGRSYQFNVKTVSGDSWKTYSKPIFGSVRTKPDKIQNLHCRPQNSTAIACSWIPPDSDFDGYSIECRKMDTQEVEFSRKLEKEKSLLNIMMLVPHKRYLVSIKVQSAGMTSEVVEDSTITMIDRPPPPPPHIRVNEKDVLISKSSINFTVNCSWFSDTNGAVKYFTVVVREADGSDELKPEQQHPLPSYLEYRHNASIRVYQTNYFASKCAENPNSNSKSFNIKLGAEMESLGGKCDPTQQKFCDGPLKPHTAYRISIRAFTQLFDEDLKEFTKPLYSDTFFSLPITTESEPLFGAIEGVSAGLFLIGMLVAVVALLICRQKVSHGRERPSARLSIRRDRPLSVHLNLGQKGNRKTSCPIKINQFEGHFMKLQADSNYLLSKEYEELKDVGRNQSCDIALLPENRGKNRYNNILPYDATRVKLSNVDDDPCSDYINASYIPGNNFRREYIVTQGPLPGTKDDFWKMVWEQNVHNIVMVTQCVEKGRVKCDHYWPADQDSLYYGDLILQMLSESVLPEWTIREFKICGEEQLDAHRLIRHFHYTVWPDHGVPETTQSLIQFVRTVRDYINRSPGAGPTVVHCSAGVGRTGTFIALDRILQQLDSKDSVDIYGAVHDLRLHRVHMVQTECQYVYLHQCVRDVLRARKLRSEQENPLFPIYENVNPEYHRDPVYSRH

[1] = tested on: patients with diabetic macular edema; assay: Best corrected visual acuity (letters) in diabetic macular edema patients given the disclosed compound subcutaneously plus intravitreal anti-VEGF agent; type: in vivo, human; conditions: 5 mg s.c. twice daily 28 days, then ranibizumab or aflibercept intravitreal; 14-28 days post anti-VEGF (FIG. 4)
Protocol: The disclosed Figures represent a control or baseline study used as a benchmark for determining the effectiveness of the disclosed methods for treating ocular diseases (FIGS. 1 and 3) and studies directed to the disclosed methods. Described herein below, four patients with visual acuity loss due to diabetic macular edema (central retinal thickness [CRT] of more than 325 microns and best corrected visual acuity less than 70 letters) were treated with subcutaneous injections of 5 mg of the disclosed compound twice a day for 28 days and then observed for an additional two months (days 28 through 84). At any time during the course of the study, investigators could administer additional therapy consisting of intravitreal injection of an anti-VEGF agent, for example, ranibizumab, bevacizumab and/or aflibercept if considered by the investigator to be medically necessary. Retinal thickness as measured by ocular coherence tomography and best corrected visual acuity as measured by a standard vision test were assessed at regular intervals during the 28 day active treatment phase and through the 2 month post-treatment observation phase, (Screening, Day 1 [baseline], Day 7, Day 14, Day 21, Day 28, Day 42, Day 56 and Day 84). The main efficacy outcomes for the study were change in CRT and visual acuity over time with treatment. […]

[2] = tested on: patients with diabetic macular edema; assay: Central Foveal Thickness by ocular coherence tomography in diabetic macular edema patients given the disclosed compound subcutaneously plus intravitreal anti-VEGF agent; type: in vivo, human
Protocol: The disclosed Figures represent a control or baseline study used as a benchmark for determining the effectiveness of the disclosed methods for treating ocular diseases (FIGS. 1 and 3) and studies directed to the disclosed methods. Described herein below, four patients with visual acuity loss due to diabetic macular edema (central retinal thickness [CRT] of more than 325 microns and best corrected visual acuity less than 70 letters) were treated with subcutaneous injections of 5 mg of the disclosed compound twice a day for 28 days and then observed for an additional two months (days 28 through 84). At any time during the course of the study, investigators could administer additional therapy consisting of intravitreal injection of an anti-VEGF agent, for example, ranibizumab, bevacizumab and/or aflibercept if considered by the investigator to be medically necessary. Retinal thickness as measured by ocular coherence tomography and best corrected visual acuity as measured by a standard vision test were assessed at regular intervals during the 28 day active treatment phase and through the 2 month post-treatment observation phase, (Screening, Day 1 [baseline], Day 7, Day 14, Day 21, Day 28, Day 42, Day 56 and Day 84). The main efficacy outcomes for the study were change in CRT and visual acuity over time with treatment. FIG. 2 depicts the results of a study wherein 4 patients received 5 mg of the disclosed compound subcutaneously twice daily for 28 days and subsequently were treated in one or both eyes (7 eyes total) with either ranibizumab (0.3 or 0.5 mg) or aflibercept (2 mg) by intravitreal injection at the discretion of the study investigator. […] The mean change in Central Foveal Thickness was −289 μm, approximately double the reduction seen 7 days to one month after ranibizumab injection in the benchmark study as depicted in FIG. 1. FIG. 5 represents the results of a single patient. The eye having the greater Central Foveal Thickness is chosen as the Study Eye. The patient from day one was given 5 mg of the disclosed compound subcutaneously twice daily. At week 3 (21 days, indicated by arrow) the fellow eye is treated with 0.5 mg of ranibizumab. At week 6 (42 days, indicated by arrow) the treated eye is treated with 0.5 mg of ranibizumab. […] Without wishing to be limited by theory, it is believed that when the fellow eye is treated with an injection of 0.5 mg of ranibizumab, the ranibizumab enters the study eye systemically. […] At week 6, the study eye is treated with an intravitreal injection of 0.5 mg of ranibizumab. As depicted in FIG. 5, by week 8, there is an overall reduction in CFT of approximately 690 μm, wherein the CFT of the subject eye is approximately 180 μm. Although the Fellow Eye began with less CFT than the study eye, nevertheless, treatment with ranibizumab at week 3 (day 21) produced a change in CFT of approximately 430 μm. […] FIG. 6 represents the results of a single patient. The eye having the greater Central Foveal Thickness is chosen as the Treated Eye (Study Eye). The patient from day one was given 5 mg of the disclosed compound subcutaneously twice daily. At week 3 (21 days, indicated by arrow) the fellow eye is rescued with 2 mg of aflibercept. […] At week 6 (42 days, indicated by arrow) the treated eye is rescued with 2 mg of aflibercept. […] The disclosed Figures represent a control or baseline study used as a benchmark for determining the effectiveness of the disclosed methods for treating ocular diseases (FIGS. 1 and 3) and studies directed to the disclosed methods. Described herein below, four patients with visual acuity loss due to diabetic macular edema (central retinal thickness [CRT] of more than 325 microns and best corrected visual acuity less than 70 letters) were treated with subcutaneous injections of 5 mg of the disclosed compound twice a day for 28 days and then observed for an additional two months (days 28 through 84). […]

[3] = single patient (FIG. 5), 5 mg s.c. twice daily, study eye given 0.5 mg ranibizumab at week 6
[4] = single patient, aflibercept protocol (FIG. 6)

## COC(=O)N[C@@H](Cc1ccccc1)C(=O)N[C@@H](Cc1ccc(NS(=O)(=O)O)cc1)c1nc(-c2ccccc2)cs1 [AA21, 4-{(S)-2-[(S)-2-(Methoxycarbonylamino)-3-phenylpropanamido]-2-(4-phenylthiazol-2-yl)ethyl}phenylsulfamic acid]
HPTP-β
  IC50: < 2 pM

## COC(=O)N[C@@H](Cc1ccccc1)C(=O)N[C@@H](Cc1ccc(NS(=O)(=O)O)cc1)c1csc(-c2cccs2)n1 [the disclosed compound, 4-{(S)-2-[(S)-2-(methoxycarbonylamino)-3-phenylpropanamido]-2-[2-(thiophen-2-yl)thiazol-4-yl]ethyl}phenylsulfamic acid]
[1]
  mean change in Visual Acuity: 9 letters
[2]; 5 mg s.c. twice daily 28 days, then ranibizumab (0.3 or 0.5 mg) or aflibercept (2 mg) intravitreal, 14-28 days post anti-VEGF, 7 eyes (FIG. 2)
  Central Foveal Reduction, individual patient eye: 50-100 μm and 150-200 μm and 200-250 μm and 300-350 μm and 350-400 μm and 450-500 μm
[2]; 5 mg s.c. twice daily 28 days, then ranibizumab or aflibercept intravitreal, 14-28 days post anti-VEGF, 7 eyes (FIG. 2)
  mean change in Central Foveal Thickness: −289 μm
[2]; combination versus FIG. 1 benchmark
  CFT reduction relative to reduction after ranibizumab in benchmark study: approximately double
[2]; single patient (FIG. 5), 5 mg s.c. twice daily, before ranibizumab to study eye
  CFT of study eye at week 6: approximately 775 μm
[2]; single patient (FIG. 5), 5 mg s.c. twice daily, fellow eye given 0.5 mg ranibizumab at day 21, by week 4
  change in CFT, fellow eye, after ranibizumab at week 3: approximately 430 μm and 350 μm
[2]; single patient (FIG. 5), 5 mg s.c. twice daily, fellow eye given 0.5 mg ranibizumab at week 3
  reduction in CFT, study eye, day 21 to day 28: approximately 300 μm; also recorded: approximately 250 μm
[2]; [3]
  CFT of study eye at week 8: approximately 180 μm; also recorded: approximately 225 μm
  overall reduction in CFT, study eye, by week 8: approximately 690 μm; also recorded: approximately 500 μm
[2]; single patient (FIG. 6), 5 mg s.c. twice daily, fellow eye rescued with 2 mg aflibercept
  CFT reduction, fellow eye, after rescue: approximately 400 μm
[2]; single patient (FIG. 6), 5 mg s.c. twice daily, study eye rescued with 2 mg aflibercept at week 6
  CFT reduction, study eye, after rescue: approximately 310 μm; also recorded: approximately 300 μm
[2]; [4]
  reduction of CFT from onset of the study, non-treated eye: ~280 μm
  reduction of CFT from onset of the study, study eye: approximately 300 μm
